Assay results from patent publication US12599672B2, “KRAS proteolysis targeting chimeras” (PAQ Therapeutics Inc., priority 2023, dated 2026).

Legend:
Type in all cases: cell-based
[1] = target: T1, KRAS (Homo sapiens, UniProt P01116); assay: KRASamp MSD assay; settings: KE39 (KRAS amplified) cells, treated with test compounds for 24 hr, MSD readout of KRAS degradation
T1 construct: endogenous in cells; host or cells: KE39 (KRAS amplified) cells
Method in brief: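 KRAS-amplified KE39 cells treated with compound for 24 hr, then lysed in RIPA buffer with protease/phosphatase inhibitors. KRAS protein measured by MSD sandwich immunoassay against a recombinant WT KRAS standard curve; DC50 derived from curve fitting of degradation.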

[2] = target: T2, KRAS G12D (Homo sapiens, UniProt P01116, G12D); assay: KRAS G12D HiBit assay; settings: AsPc-1-KRAS (G12D)-HiBit-KI cell, compound treatment for 24 hours, class symbols; for DC50: absolute DC50
T2 construct: AsPc-1-KRAS (G12D)-HiBit-KI cell (Pharmaron); host or cells: AsPc-1-KRAS (G12D)-HiBit-KI cells (HiBiT knock-in at the endogenous KRAS locus)
Method in brief: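 Cells were treated for 24 h with compounds in a 3-fold, 10-point dilution series from a 0.3 mM DMSO stock, then equilibrated 15 min at room temperature. KRAS G12D HiBiT levels were read by luminescence after lytic Nano-Glo HiBiT reagent with LgBiT; inhibition calculated relative to 0.1% DMSO high control.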

[3] = target: T3, KRAS G12V (Homo sapiens, UniProt P01116, G12V); assay: KRAS G12V HiBit assay; settings: SW620-KRAS (G12V)-HiBit-KI cells, compound treatment for 24 hours, class symbols
T3 construct: SW620-KRAS (G12V)-HiBit-KI cell (Pharmaron); host or cells: SW620-KRAS (G12V)-HiBit-KI cells (HiBiT knock-in at the endogenous KRAS locus)
Method in brief: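 HiBiT-tagged KRAS G12V cells treated 24 h with compound in a 3-fold, 10-point series (0.3 mM DMSO stock); lytic HiBiT reagent with LgBiT added after 15 min room-temperature equilibration. Degradation calculated against 0.1% DMSO high control.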

T2 sequence (P01116 1-188 isoform P01116-2 G12D): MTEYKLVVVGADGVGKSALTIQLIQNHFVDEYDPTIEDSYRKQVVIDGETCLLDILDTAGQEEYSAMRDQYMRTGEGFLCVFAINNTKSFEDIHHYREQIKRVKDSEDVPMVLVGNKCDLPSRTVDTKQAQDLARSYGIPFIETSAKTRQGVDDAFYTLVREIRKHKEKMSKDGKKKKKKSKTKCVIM
T1 sequence (P01116 1-188 isoform P01116-2): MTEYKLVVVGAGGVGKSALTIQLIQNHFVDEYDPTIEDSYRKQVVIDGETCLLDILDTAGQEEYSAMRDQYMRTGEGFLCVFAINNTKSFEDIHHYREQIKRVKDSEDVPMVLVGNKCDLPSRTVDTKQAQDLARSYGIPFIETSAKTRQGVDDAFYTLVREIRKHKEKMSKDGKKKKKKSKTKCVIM
T3 sequence (P01116 1-188 isoform P01116-2 G12V): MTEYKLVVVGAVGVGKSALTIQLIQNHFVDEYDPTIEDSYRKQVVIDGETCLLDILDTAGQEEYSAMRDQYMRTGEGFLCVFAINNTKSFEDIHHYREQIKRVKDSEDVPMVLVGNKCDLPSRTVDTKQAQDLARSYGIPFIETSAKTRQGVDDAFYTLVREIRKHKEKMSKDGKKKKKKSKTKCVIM

Compound	DC50 [1]	DC50 [2]	DC50 [3]	Dmax [2]
CCc1c(F)ccc2cc(O)cc(-c3ncc4c(N5CCC[C@@](C)(O)C5)nc(OCC5(CN6CCN(CC7CCN(c8ccc9c(c8)n(C)c(=O)n9C8CCC(=O)NC8=O)CC7)CC6)CC5)nc4c3F)c12 (stereo partly shown) [Compound 34]	< 1 nM	< 100 nM	< 10 nM	–
CCc1c(F)ccc2cc(O)cc(-c3ncc4c(N5CCC[C@@](C)(O)C5)nc(OC[C@]56CCCN5[C@H](CCCN5CCC(c7ccc8c(c7)n(C)c(=O)n8C7CCC(=O)NC7=O)CC5)CC6)nc4c3F)c12 (stereo partly drawn) [Compound 473, 3-(5-(1-(3-((3R,7aR)-7a-(((7-(8-Ethyl-7-fluoro-3-hydroxynaphthalen-1-yl)-8-fluoro-4-((R)-3-hydroxy-3-methylpiperidin-1-yl)pyrido[4,3-d]pyrimidin-2-yl)oxy)methyl)hexahydro-1H-pyrrolizin-3-yl)propyl)piperidin-4-yl)-3-methyl-2-oxo-2,3-dihydro-1H-benzo[d]imidazol-1-yl) piperidine-2,6-dione]	1 to 10 nM	< 100 nM	10 to 100 nM	–
C#Cc1c(F)ccc2cc(O)cc(-c3ncc4c(N5CCC[C@@](C)(O)C5)nc(OC[C@]56CCCN5[C@H](COC(=O)N5CCC(CN7CCC(c8ccc9c(c8)n(C)c(=O)n9C8CCC(=O)NC8=O)CC7)CC5)CC6)nc4c3F)c12 (stereo partly shown) [Compound 134]	< 1 nM	< 100 nM	< 10 nM	–
CCc1c(F)ccc2cc(O)cc(-c3ncc4c(N5CCC[C@@](C)(O)C5)nc(OC[C@@]56CCCN5[C@H](COC(=O)N5CCC(CN7CCN(c8ccc9c(c8)n(C)c(=O)n9C8CCC(=O)NC8=O)CC7)CC5)CC6)nc4c3F)c12 (stereo partly drawn) [Compound 95, [(3S,8S)-8-[[7-(8-ethyl-7-fluoro-3-hydroxy-1-naphthyl)-8-fluoro-4-[(3R)-3-hydroxy-3-methyl-1-piperidyl]pyrido[4,3-d]pyrimidin-2-yl]oxymethyl]-1,2,3,5,6,7-hexahydropyrrolizin-3-yl]methyl4-[[4-[1-(2,6-dioxo-3-piperidyl)-3-methyl-2-oxo-benzimidazol-5-yl]piperazin-1-yl]methyl]piperidine-1-carboxylate]	< 1 nM	< 100 nM	< 10 nM	> 50%
